Assay results reported in ChEMBL document CHEMBL5154832, “Design, Synthesis, and Proof-of-Concept of Triple-Site Inhibitors against Aminoacyl-tRNA Synthetases” (J Med Chem, 2022).
In brackets after ≈: the same amount, converted by molar mass.

Experiments:
[1] = target: T1, Threonine--tRNA ligase (Salmonella enterica) (UniProt A0A3F3IEK2); assay: Binding affinity to recombinant salmonella enterica threonyl-tRNA synthetase assessed as change in melting temperature at 0.1 mM by fluorescence-based thermal shift assay
T1 sequence (whole entry): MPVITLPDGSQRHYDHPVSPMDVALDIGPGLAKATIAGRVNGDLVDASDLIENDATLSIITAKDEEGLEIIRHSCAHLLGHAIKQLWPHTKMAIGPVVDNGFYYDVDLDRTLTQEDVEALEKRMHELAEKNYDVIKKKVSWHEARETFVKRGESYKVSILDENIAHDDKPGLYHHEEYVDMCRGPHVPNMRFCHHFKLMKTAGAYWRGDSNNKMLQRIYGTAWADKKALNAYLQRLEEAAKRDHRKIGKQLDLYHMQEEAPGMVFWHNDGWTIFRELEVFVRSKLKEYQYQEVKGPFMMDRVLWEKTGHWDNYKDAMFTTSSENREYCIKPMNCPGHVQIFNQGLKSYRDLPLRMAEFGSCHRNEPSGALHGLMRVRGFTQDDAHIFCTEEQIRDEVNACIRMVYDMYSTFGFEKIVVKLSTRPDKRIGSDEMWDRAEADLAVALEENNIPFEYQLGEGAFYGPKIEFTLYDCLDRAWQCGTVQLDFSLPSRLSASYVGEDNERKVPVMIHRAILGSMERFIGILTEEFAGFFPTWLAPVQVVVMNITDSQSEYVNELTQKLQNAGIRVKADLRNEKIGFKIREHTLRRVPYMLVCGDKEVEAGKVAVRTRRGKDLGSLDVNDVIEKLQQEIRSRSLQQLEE

Pseudomonas aeruginosa = assay: Antibacterial activity against Pseudomonas aeruginosa ATCC27853 strain assessed as inhibition of bacterial growth incubated for 8 hrs by CLSI protocol based microdilution assay; assay type: functional
Staphylococcus aureus [2] = assay: Antibacterial activity against Staphylococcus aureus ATCC 29213 strain assessed as inhibition of bacterial growth incubated for 8 hrs by CLSI protocol based microdilution assay; assay type: functional
Threonine--tRNA ligase = target: T2, Threonine--tRNA ligase (Salmonella enterica, UniProt A0A3F3IEK2); assay: Inhibition of recombinant salmonella enterica threonyl-tRNA synthetase assessed as reduction in enzyme activity incubated for 20 min by Kinase Glo luminescence assay
T2 sequence (A0A3F3IEK2 whole entry): T1 sequence (whole entry)

Salmonella enterica = assay: Antibacterial activity against Salmonella enterica 87 strain assessed as inhibition of bacterial growth incubated for 8 hrs by CLSI protocol based microdilution assay; assay type: functional
Enterococcus faecalis = assay: Antibacterial activity against Enterococcus faecalis ATCC 29212 strain assessed as inhibition of bacterial growth incubated for 8 hrs by CLSI protocol based microdilution assay; assay type: functional
Escherichia coli [3] = assay: Antibacterial activity against Escherichia coli ATCC 25922 strain assessed as inhibition of bacterial growth incubated for 8 hrs by CLSI protocol based microdilution assay; assay type: functional
Staphylococcus aureus [4] = assay: Antibacterial activity against Staphylococcus aureus MRSA R3708 strain assessed as inhibition of bacterial growth incubated for 8 hrs by CLSI protocol based microdilution assay; assay type: functional
[5] = target: T1, Threonine--tRNA ligase (Salmonella enterica); assay: Inhibition of recombinant salmonella enterica threonyl-tRNA synthetase assessed as reduction in enzyme activity at 10 uM incubated for 20 min by Kinase Glo luminescence assay relative to control
Escherichia coli [6] = assay: Antibacterial activity against Escherichia coli acraB strain assessed as inhibition of bacterial growth incubated for 8 hrs by CLSI protocol based microdilution assay; assay type: functional

Compound | ΔTm [1] | MIC (Pseudomonas aeruginosa) | MIC (Staphylococcus aureus [2]) | IC50 (Threonine--tRNA ligase) | MIC (Salmonella enterica) | MIC (Enterococcus faecalis) | MIC (Escherichia coli [3]) | MIC (Staphylococcus aureus [4]) | inhibition [5] | MIC (Escherichia coli [6])
C[C@@H](O)[C@H](N)C(=O)N[C@@H](CNC(=O)CCn1cnc2cc(Br)c(Cl)cc2c1=O)c1cccc(-c2ccc3c(c2)CNC3=O)c1 | 32.8 °C | ≥ 128 mg/L | ≥ 128 mg/L | 0.103 µM | ≥ 128 mg/L | ≥ 128 mg/L | ≥ 128 mg/L | ≥ 128 mg/L | > 99% | ≥ 128 mg/L
C[C@@H](O)[C@H](N)C(=O)N(CCCCCCn1cnc2cc(Br)c(Cl)cc2c1=O)Cc1cccc(-c2ccc3c(c2)CNC3=O)c1 | 23.5 °C | 64 mg/L (≈ 94 µM) | 64 mg/L (≈ 94 µM) | 5.68 µM | ≥ 128 mg/L | 64 mg/L (≈ 94 µM) | ≥ 128 mg/L | 64 mg/L (≈ 94 µM) | 75% | 64 mg/L (≈ 94 µM)
C[C@@H](O)[C@H](N)C(=O)N[C@H](CNC(=O)CCn1cnc2cc(Br)c(Cl)cc2c1=O)c1cccc(-c2ccc3c(N)ncnc3c2)c1 | 29.4 °C |  |  | 6.63 µM |  |  |  |  | 57% | 
CC1(C)S[C@@H]2[C@H](NC(=O)[C@H](N)c3ccccc3)C(=O)N2[C@H]1C(=O)O [AMPICILLIN] |  | 1 mg/L (≈ 2.86 µM) |  |  | 1 mg/L (≈ 2.86 µM) |  | 1 mg/L (≈ 2.86 µM) |  |  | 1 mg/L (≈ 2.86 µM)
C[C@@H](O)[C@H](N)C(=O)N[C@@H](CNC(=O)CCn1cnc2cc(Cl)c(Cl)cc2c1=O)c1cccc(-c2ccccc2)c1 | 23 °C | 16 mg/L (≈ 27.5 µM) | 32 mg/L (≈ 54.9 µM) | 0.52 µM | ≥ 128 mg/L | 32 mg/L (≈ 54.9 µM) | ≥ 128 mg/L | 16 mg/L (≈ 27.5 µM) | > 99% | 16 mg/L (≈ 27.5 µM)
C[C@@H](O)[C@H](N)C(=O)N(CCCOC(=O)Cn1cnc2cc(Br)c(Cl)cc2c1=O)Cc1cccc(-c2ccc3c(c2)CNC3=O)c1 | 0 °C |  |  |  |  |  |  |  |  | 
C[C@@H](O)[C@H](N)C(=O)N[C@@H](CNC(=O)CCn1cnc2cc(Br)c(Cl)cc2c1=O)c1cccc(-c2ccccc2)c1 | 20.1 °C | 16 mg/L (≈ 25.5 µM) | 32 mg/L (≈ 51 µM) | 3.71 µM | ≥ 128 mg/L | 32 mg/L (≈ 51 µM) | ≥ 128 mg/L | 32 mg/L (≈ 51 µM) | 82% | 32 mg/L (≈ 51 µM)
C[C@@H](O)[C@H](N)C(=O)N[C@H](CNC(=O)CCn1cnc2cc(Br)c(Cl)cc2c1=O)c1cccc(-c2ccc3[nH]ncc3c2)c1 | 10.2 °C |  |  |  |  |  |  |  | 30% | 
C[C@@H](O)[C@H](N)C(=O)N(CCC(=O)N1CCN(CCn2cnc3cc(Br)c(Cl)cc3c2=O)CC1)Cc1cccc(-c2ccc3c(c2)CNC3=O)c1 | 0 °C |  |  |  |  |  |  |  |  | 
CN[C@H](C(=O)N[C@H](CNC(=O)CCn1cnc2cc(Cl)c(F)cc2c1=O)c1cccc(-c2ccccc2)c1)[C@@H](C)O | 7.2 °C |  |  |  |  |  |  |  | 5% | 
C[C@@H](O)[C@H](N)C(=O)N[C@@H](CNC(=O)CCn1cnc2cc(Br)c(Cl)cc2c1=O)c1cccc(-c2ccc3ccccc3c2)c1 | 20.2 °C | 4 mg/L (≈ 5.91 µM) | 4 mg/L (≈ 5.91 µM) | 2.1 µM | ≥ 128 mg/L | 4 mg/L (≈ 5.91 µM) | ≥ 128 mg/L | 4 mg/L (≈ 5.91 µM) | 85% | 8 mg/L (≈ 11.8 µM)
C[C@@H](O)[C@H](N)C(=O)NS(=O)(=O)c1cccc(-c2ccc3[nH]ncc3c2)c1 | 29.9 °C | ≥ 128 mg/L | ≥ 128 mg/L | 0.19 µM | ≥ 128 mg/L | ≥ 128 mg/L | ≥ 128 mg/L | ≥ 128 mg/L | > 99% | ≥ 128 mg/L
C[C@@H](O)[C@H](N)C(=O)N[C@@H](CNC(=O)CCn1cnc2cc(Cl)c(Cl)cc2c1=O)c1cccc(-c2ccc(Cl)cc2)c1 | 20.1 °C | 4 mg/L (≈ 6.48 µM) | 4 mg/L (≈ 6.48 µM) | 3.29 µM | ≥ 128 mg/L | 4 mg/L (≈ 6.48 µM) | ≥ 128 mg/L | 4 mg/L (≈ 6.48 µM) | 75% | 8 mg/L (≈ 13 µM)
C[C@@H](O)[C@H](N)C(=O)N[C@H](CNC(=O)CCn1cnc2cc(Cl)c(F)cc2c1=O)c1cccc(-c2ccccc2)c1 | 12.1 °C |  |  |  |  |  |  |  | 11% | 
C[C@@H](O)[C@H](N)C(=O)N[C@H](CNC(=O)CCn1cnc2cc(Br)c(Cl)cc2c1=O)c1cccc(-c2ccccc2)c1 | 7 °C |  |  |  |  |  |  |  | 8% | 
C[C@@H](O)[C@H](N)C(=O)N(CCCC(=O)NCCn1cnc2cc(Br)c(Cl)cc2c1=O)Cc1cccc(-c2ccc3c(c2)CNC3=O)c1 | 27.8 °C | 64 mg/L (≈ 90.1 µM) | ≥ 128 mg/L | 2.99 µM | ≥ 128 mg/L | 64 mg/L (≈ 90.1 µM) | ≥ 128 mg/L | ≥ 128 mg/L | 84% | 64 mg/L (≈ 90.1 µM)
C[C@@H](O)[C@H](N)C(=O)N[C@@H](CNC(=O)CCn1cnc2cc(Cl)c(Cl)cc2c1=O)c1cccc(-c2ccc(C(F)(F)F)cc2)c1 | 25.9 °C | 4 mg/L (≈ 6.15 µM) | 2 mg/L (≈ 3.07 µM) | 0.58 µM | ≥ 128 mg/L | 4 mg/L (≈ 6.15 µM) | ≥ 128 mg/L | 4 mg/L (≈ 6.15 µM) | > 99% | 8 mg/L (≈ 12.3 µM)
C[C@@H](O)[C@H](N)C(=O)N[C@H](CNC(=O)CCn1cnc2cc(Br)c(Cl)cc2c1=O)c1cccc(-c2ccc3ccccc3c2)c1 | 4.8 °C |  |  |  |  |  |  |  |  | 
CN[C@H](C(=O)N[C@@H](CNC(=O)CCn1cnc2cc(Cl)c(F)cc2c1=O)c1cccc(-c2ccccc2)c1)[C@@H](C)O | 22.1 °C | 16 mg/L (≈ 27.6 µM) | 32 mg/L (≈ 55.2 µM) | 2.1 µM | ≥ 128 mg/L | 32 mg/L (≈ 55.2 µM) | ≥ 128 mg/L | 32 mg/L (≈ 55.2 µM) | 73% | 16 mg/L (≈ 27.6 µM)
C[C@@H](O)[C@H](N)C(=O)N[C@@H](CNC(=O)CCn1cnc2cc(Br)c(Cl)cc2c1=O)c1cccc(-c2ccc3c(N)ncnc3c2)c1 | 35.2 °C | ≥ 128 mg/L | ≥ 128 mg/L | 0.48 µM | ≥ 128 mg/L | ≥ 128 mg/L | ≥ 128 mg/L | ≥ 128 mg/L | > 99% | ≥ 128 mg/L
CN[C@H](CC(C)C)C(=O)N[C@H]1C(=O)N[C@@H](CC(N)=O)C(=O)N[C@H]2C(=O)N[C@H]3C(=O)N[C@H](C(=O)N[C@H](C(=O)O)c4cc(O)cc(O)c4-c4cc3ccc4O)[C@H](O)c3ccc(c(Cl)c3)Oc3cc2cc(c3O[C@@H]2O[C@H](CO)[C@@H](O)[C@H](O)[C@H]2O[C@H]2C[C@](C)(N)[C@H](O)[C@H](C)O2)Oc2ccc(cc2Cl)[C@H]1O [VANCOMYCIN] |  |  |  |  |  | 2 mg/L (≈ 1.38 µM) |  |  |  | 
C[C@@H](O)[C@H](N)C(=O)N[C@H](CNC(=O)CCn1cnc2cc(Br)c(Cl)cc2c1=O)c1cccc(-c2ccc3c(c2)CNC3=O)c1 | 17.9 °C |  |  | 1.86 µM |  |  |  |  | 86% | 
C[C@@H](O)[C@H](N)C(=O)N(CCCCOC(=O)Cn1cnc2cc(Br)c(Cl)cc2c1=O)Cc1cccc(-c2ccc3c(c2)CNC3=O)c1 | 0 °C |  |  |  |  |  |  |  |  | 
C[C@@H](O)[C@H](N)C(=O)N[C@H](CNC(=O)CCn1cnc2cc(Cl)c(Cl)cc2c1=O)c1cccc(-c2ccccc2)c1 | 5 °C |  |  |  |  |  |  |  |  | 
C[C@@H](O)[C@H](N)C(=O)N[C@H](CNC(=O)CCn1cnc2cc(Br)c(Cl)cc2c1=O)c1cccc(-c2ccc3[nH]ccc3c2)c1 | 8.4 °C |  |  |  |  |  |  |  | 24% | 
C[C@@H](O)[C@@H](N)C(=O)N(CCCCCn1cnc2cc(Br)c(Cl)cc2c1=O)S(=O)(=O)c1cccc(-c2ccc3c(c2)CNC3=O)c1 | 6.2 °C |  |  |  |  |  |  |  | 16% | 
